Data reported in US10729653B2, “Pharmaceutical compositions comprising 2-oxo-1-pyrrolidine derivatives” (UCB BIOPHARMA SRL, priority 2009, dated 2020).

How the values were obtained:
[1] = system: corneal kindling of mice; experiment: corneal kindling of mice; assay type: in vivo
[2] = system: GAERS rats; experiment: spontaneous SWDs in GAERS rats; assay type: in vivo, rat
[3] = system: post-herpetic neuralgia; settings: patients; cited from earlier work
[4] = system: fully amygdala-kindled rats; experiment: fully amygdala-kindled rats; assay type: in vivo, rat; settings: for dose from which a significant suppression in motor-seizure severity is induced: fully amygdala-kindled rats
[5] = system: pentylenetetrazol-induced clonic convulsions in mice; experiment: chemically induced seizures in mice (pentylenetetrazol); assay type: in vivo; settings: i.p. 30 min before seizure induction; higher ED50 values than in audiogenic mice
Method: The dose was selected based on dose-effect curves in saline-treated animals as the convulsive dose inducing clonic convulsions of all four extremities in 97% of the animals. Immediately after administration of the chemoconvulsant, the mice were placed individually in small plastic cages (25 13 8 cm) and observed for the presence of clonic convulsions in all four extremities, for 60 min. The occurrence of tonic convulsions (hindlimb extension) and mortality was also recorded during this interval. The proportion of mice protected against clonic convulsions was calculated and used as the end point for anticonvulsant activity.

[6] = system: refractory partial onset seizures; settings: adult patients, adjunctive treatment; cited from earlier work
[7] = system: genetically sound-sensitive male mice; experiment: audiogenic seizures in mice; assay type: in vivo; settings: audiogenic seizure-susceptible mice; i.p., brivaracetam 30 min, levetiracetam 60 min pretreatment
Method: Audiogenic seizures in mice: Genetically sound-sensitive male mice (16-28 g; n=10 per group), responding with wild running, clonic and tonic convulsions to an acoustic stimulation, were used. Audiogenic seizures were induced by an acoustic stimulus (90 dB, 10-20 kHz) applied for 30 s. The mice were pretreated with either saline, brivaracetam (i.p., 30 min) or levetiracetam (i.p., 60 min), and the proportion of mice protected against clonic convulsions was used as the end point to assess anticonvulsant activity.

[8] = system: tonic hindlimb extension induced by a maximal electroshock in mice; experiment: maximal electroshock in mice; assay type: in vivo; settings: i.p. 30 min before seizure induction; higher ED50 values than in audiogenic mice
[9] = system: rat hippocampal slices; experiment: epileptiform responses in hippocampal slices (CA3 field potentials); assay type: cell-based, Sprague-Dawley rats; parameters: rate of spontaneous field bursting: dose or concentration left out as unconfirmed; settings: for evoked epileptiform responses (PS1 amplitude, repetitive PSs) in CA3: high-K+/low-Ca2+ fluid (HKLCF) perfusion, fimbrial stimulation
Method: The effect of brivaracetam on epileptiform responses induced by high-K+/low-Ca2+ concentrations or by bicuculline was examined in transverse hippocampal slices prepared from Sprague-Dawley rats according to previously reported standard procedures. The epileptiform responses were induced by passing from a normal perfusion of artificial cerebrospinal fluid (ACSF) (K+3 mM; Ca2+2.4 mM) to either high-K+/low-Ca2+ fluid (HKLCF) (K+7.5 mM; Ca2+0.5 mM) or to […] bicuculline methiodide (BMI)-containing ACSF.
Extracellular field potentials (FPs) were recorded in the CA3 area of the slices with 2 M NaCl-filled glass microelectrodes. The evoked FPs were recorded at 10-min intervals in response to fimbrial stimulation with constant current rectangular pulses that elicit a single population spike (PS) of 50-75% of the maximal amplitude when the slice is in ACSF. In the HKLCF model, 2 min of spontaneous activity were also recorded, in the middle of each 10-min interval between the recordings of evoked responses.
Either brivaracetam or levetiracetam was added to the bathing fluid of the slices 20 min before shifting from ACSF to either HKLCF or […] BMI-containing ACSF, and was kept in the perfusion fluid throughout the experiment.

[10] = system: rat hippocampal slices; settings: background statement; cited from earlier work

SMILES	incidence of generalized motor seizures after termination of treatment ([1]; continued corneal stimulations, group previously treated with the highest dose)	incidence of generalized motor seizures ([1]; pretreatment during corneal kindling, levetiracetam at higher doses)	dose from which spontaneous SWDs are significantly suppressed ([2]; GAERS rats) [mg/kg]	inhibition of spontaneous SWDs ([2]; highest dose tested (67.9 mg kg-1))	efficacy in post-herpetic neuralgia [3]	dose from which a significant suppression in motor-seizure severity is induced [4] [mg/kg]	after-discharge duration ([4]; highest dose tested (212.3 mg kg-1))	protection against clonic convulsions induced by pentylenetetrazol [5]	efficacy in the treatment of epilepsy [6]	protection against the expression of clonic convulsions [7]	protection against tonic hindlimb extension induced by a maximal electroshock [8]	rate of spontaneous field bursting ([9]; HKLCF)	evoked epileptiform responses (PS1 amplitude, repetitive PSs) in CA3 [9]	after-discharge duration ([4]; up to 1700 mg kg-1)	epileptiform responses induced by high-K+/low-Ca2+ concentrations and by bicuculline [10]
CCC[C@@H]1CC(=O)N([C@@H](CC)C(N)=O)C1 [Brivaracetam, (2S)-2-[(4R)-2-oxo-4-propyl-pyrrolidin-1-yl]butanamide]	persistent reduction in the incidence of generalized motor seizures	significant reduction in the incidence of generalized motor seizures	≥ 2.1	complete inhibition	effective in the treatment of patients with post-herpetic neuralgia	≥ 21.2	significantly reduced the after-discharge duration	protected	effective in the treatment of epilepsy	protected	protected	reduced the rate of this spontaneous bursting	reduced these epileptiform responses		
CC[C@@H](C(N)=O)N1CCCC1=O [Levetiracetam]						≥ 170				protected			reduced these epileptiform responses	inactive	reduces epileptiform responses
CC[C@@H](C(N)=O)N1C[C@H](C=C(F)F)CC1=O [Seletracetam, (2S)-2-[(4S)-4-(2,2-difluorovinyl)-2-oxo-pyrrolidin-1-yl]butanamide]									effective in the treatment of epilepsy						
